Source: patent publication US20070092577A1, “Dietary calcium for reducing the production of reactive oxygen species” (University of Tennessee Research Foundation, priority 2005, published 2007)

How the values were obtained:
[1] = tested on: [Ca^2+]i in cultured 3T3-L1 adipocytes; experiment: Intracellular calcium in cultured adipocytes (fura-2); format: cell-based, murine; settings: 4 hours
Experimental: 3T3-L1 preadipocytes were incubated at a density of 8000 cells/cm^2 (10 cm^2 dish) and grown in Dulbecco's modified Eagle's medium (DMEM) containing 10% FBS and antibiotics (adipocyte medium) at 37° C. in 5% CO2 in air. Confluent preadipocytes were induced to differentiate with a standard differentiation medium consisting of DMEM-F 10 (1:1, vol/vol) medium supplemented with 1% FBS, 1 μM dexamethasone, IBMX (0.5 mM) and antibiotics (1% Penicillin-Streptomycin). Preadipocytes were maintained in this differentiation medium for 3 days and subsequently cultured in adipocyte medium. Cultures were re-fed every 2-3 days to allow 90% of cells to reach full differentiation before conducting chemical treatment. Chemicals were freshly diluted in adipocyte medium before treatment. Cells were washed with fresh adipocyte medium, re-fed with medium containing the different treatments, and incubated at 37° C. in 5% CO2 in air before analysis. Cell viability was measured via trypan blue exclusion. [Ca^2+]i in adipocytes was measured using a fura-2 dual-wavelength fluorescence imaging system. Cells were plated in 35-mm dishes […]). […] Cells were loaded with fura-2 acetoxymethyl ester (fura-2 AM) (10 μmol/L) in the same buffer for 2 h at 37° C. in a dark incubator with 5% CO2. To remove extracellular dye, cells were rinsed with HBSS three times and then post-incubated at room temperature for an additional 1 h for complete hydrolysis of cytoplasmic fura-2 AM. The dishes with dye-loaded cells were mounted on the stage of Nikon TMS-F fluorescence inverted microscope with a Cohu model 4915 charge-coupled device (CCD) camera. Fluorescent images were captured alternatively at excitation wavelengths of 340 and 380 nm with an emission wavelength of 520 nm. After establishment of a stable baseline, the responses to 1α, 25-(OH)2-D3 was determined. [Ca^2+]i was calculated using a ratio equation as described previously. Each analysis evaluated responses of 5 representative whole cells. Images were analyzed with […]2 version 4.62 imaging software (Intracellular Imaging, Cincinnati, Ohio). […]

[2] = tested on: ROS production in cultured 3T3-L1 adipocytes; experiment: ROS production in cultured adipocytes (H2-DCFDA); format: cell-based, murine; settings: 48 hours
Experimental: 3T3-L1 preadipocytes were incubated at a density of 8000 cells/cm^2 (10 cm^2 dish) and grown in Dulbecco's modified Eagle's medium (DMEM) containing 10% FBS and antibiotics (adipocyte medium) at 37° C. in 5% CO2 in air. Confluent preadipocytes were induced to differentiate with a standard differentiation medium consisting of DMEM-F 10 (1:1, vol/vol) medium supplemented with 1% FBS, 1 μM dexamethasone, IBMX (0.5 mM) and antibiotics (1% Penicillin-Streptomycin). Preadipocytes were maintained in this differentiation medium for 3 days and subsequently cultured in adipocyte medium. Cultures were re-fed every 2-3 days to allow 90% of cells to reach full differentiation before conducting chemical treatment. Chemicals were freshly diluted in adipocyte medium before treatment. Cells were washed with fresh adipocyte medium, re-fed with medium containing the different treatments, and incubated at 37° C. in 5% CO2 in air before analysis. Cell viability was measured via trypan blue exclusion. […] Cells were loaded with H2-DCFDA (2 μmol/L) 30 minute before the end of the incubation period (48 h). After washing twice with PBS, cells were scraped and disrupted by sonication on ice (20s). Fluorescence (emission 543 nm or 527 nm) and DNA content were then measured as described previously. The intensity of fluorescence was expressed as arbitary units per ng DNA.

M-CSF = M-CSF expression in 3T3-L1 adipocytes; format: cell-based, mouse; settings: calcitriol 10 nmol/L, 48 hours
Experimental: RAW 264 macrophages and 3T3-L1 preadipocytes (American Type Culture Collection) were incubated at a density of 8000 cells/cm2 (10 cm2 dish) and grown in Dulbecco's modified Eagle's medium (DMEM) containing 10% FBS and antibiotics (adipocyte medium) at 37° C. in 5% CO2 in air. Confluent 3T3-L1 preadipocytes were induced to differentiate with a standard differentiation medium consisting of DMEM-F10 (1:1, vol/vol) medium supplemented with 1% FBS, 1 μM dexamethasone, IBMX (0.5 mM) and antibiotics (1% Penicillin-Streptomycin). Preadipocytes were maintained in this differentiation medium for 3 days and subsequently cultured in adipocyte medium. […]
Cell viability was measured via trypan blue exclusion.
Adipocyte and muscle 18s, CD14, TNFα, MIP, M-CSF, IL-6 and MCP-1 were quantitatively measured using a Smart Cycler Real Time PCR System (Cepheid, Sunnyvale, Calif.) with a TaqMan 1000 Core Reagent Kit (Applied Biosystems, Branchburg, N.J.). […] Reactions of quantitative RT-PCR for standards and unknown samples were also performed according to the instructions of Smart Cycler System (Cepheid, Sunnyvale, Calif.) and TaqMan Real Time PCR Core Kit (Applied Biosystems, Branchburg, N.J.). The mRNA quantitation for each sample was further normalized using the corresponding 18s quantitation.

3T3-L1 adipocytes = experiment: Mouse cytokine antibody array of culture medium; format: cell-based
Experimental: RAW 264 macrophages and 3T3-L1 preadipocytes (American Type Culture Collection) were incubated at a density of 8000 cells/cm2 (10 cm2 dish) and grown in Dulbecco's modified Eagle's medium (DMEM) containing 10% FBS and antibiotics (adipocyte medium) at 37° C. in 5% CO2 in air. Confluent 3T3-L1 preadipocytes were induced to differentiate with a standard differentiation medium consisting of DMEM-F10 (1:1, vol/vol) medium supplemented with 1% FBS, 1 μM dexamethasone, IBMX (0.5 mM) and antibiotics (1% Penicillin-Streptomycin). Preadipocytes were maintained in this differentiation medium for 3 days and subsequently cultured in adipocyte medium. Cultures were re-fed every 2-3 days to allow 90% cells to reach fully differentiation for 3T3-L1 adipocytes or grow to a confluence for RAW 264 before conducting chemical treatment.
Human adipocytes (Zen-Bio, Inc.), 3T3-L1 adipocytes, RAW264 macrophages were obtained and co-cultured by using transwell inserts with 0.4 μm porous membranes (Corning) to separate adipocytes and macrophages. All data are expressed as mean±SEM. Data were evaluated for statistical significance by analysis of one-way or two-way variance (ANOVA; means with different letter differ, p<0.05).
A TansSignal™ mouse cytokine antibody array kit (Panomics, Fremont, Calif.) was used to detect cytokine protein released in culture medium according to the manufacture's instruction. […]

## OO [H2O2, hydrogen peroxide]
[1]; H2O2 100 nmol/L or glucose 30 mmol/L, p<0.001
  increase in [Ca^2+]i: 5 fold

## C=C1/C(=C\C=C2/CCC[C@]3(C)[C@@H]([C@H](C)CCCC(C)(C)O)CC[C@@H]23)C[C@@H](O)C[C@@H]1O [calcitriol, 1, 25-Dihydroxyvitamin D]
[2]; added to glucose 30 mmol/L, nifedipine 10 μmol/L
  effect on high glucose induced ROS production: greater stimulation of ROS production than either glucose alone or glucose plus GDP
M-CSF
  effect on M-CSF expression: markedly stimulate
3T3-L1 adipocytes; co-culture of 3T3-L1 adipocytes with RAW264 macrophages
  effect on inflammatory cytokine production: further stimulated inflammatory cytokine production
3T3-L1 adipocytes; differentiated 3T3-L1 adipocytes cultured alone
  effect on release of inflammatory cytokine proteins: up-regulated production of multiple inflammatory cytokine proteins

## Cc1c(C)c2c(c(C)c1O)CC[C@@](C)(CCC[C@H](C)CCC[C@H](C)CCCC(C)C)O2 [α-tocopherol]
[2]; α-tocopherol 1 μmol/L
  effect on ROS production in all groups: inhibited
[1]; α-tocopherol 1 μmol/L with H2O2 100 nmol/L
  effect on H2O2 induced increase in [Ca^2+]i: reversed
[1]; α-tocopherol 1 μmol/L with glucose 30 mmol/L
  effect on glucose induced increase in [Ca^2+]i: partially blocked
